Experimental data as given in ChEMBL document CHEMBL2073984, “Nonlinear oral pharmacokinetics of the alpha-antagonist 4-amino-5-(4-fluorophenyl)-6,7-dimethoxy-2-[4-(morpholinocarbonyl)-perhydro-1,4-diazepin-1-yl]quinoline in humans: use of preclinical data to rationalize clinical observations” (Drug Metab Dispos, 2004).

Target: ATP-dependent translocase ABCB1 (Homo sapiens, UniProt P08183)
Assay: TP_TRANSPORTER: transepithelial transport in Caco2 cells
Format: functional, cell-based
Details: caco-2

ATP-dependent translocase ABCB1, sequence (P08183 whole entry): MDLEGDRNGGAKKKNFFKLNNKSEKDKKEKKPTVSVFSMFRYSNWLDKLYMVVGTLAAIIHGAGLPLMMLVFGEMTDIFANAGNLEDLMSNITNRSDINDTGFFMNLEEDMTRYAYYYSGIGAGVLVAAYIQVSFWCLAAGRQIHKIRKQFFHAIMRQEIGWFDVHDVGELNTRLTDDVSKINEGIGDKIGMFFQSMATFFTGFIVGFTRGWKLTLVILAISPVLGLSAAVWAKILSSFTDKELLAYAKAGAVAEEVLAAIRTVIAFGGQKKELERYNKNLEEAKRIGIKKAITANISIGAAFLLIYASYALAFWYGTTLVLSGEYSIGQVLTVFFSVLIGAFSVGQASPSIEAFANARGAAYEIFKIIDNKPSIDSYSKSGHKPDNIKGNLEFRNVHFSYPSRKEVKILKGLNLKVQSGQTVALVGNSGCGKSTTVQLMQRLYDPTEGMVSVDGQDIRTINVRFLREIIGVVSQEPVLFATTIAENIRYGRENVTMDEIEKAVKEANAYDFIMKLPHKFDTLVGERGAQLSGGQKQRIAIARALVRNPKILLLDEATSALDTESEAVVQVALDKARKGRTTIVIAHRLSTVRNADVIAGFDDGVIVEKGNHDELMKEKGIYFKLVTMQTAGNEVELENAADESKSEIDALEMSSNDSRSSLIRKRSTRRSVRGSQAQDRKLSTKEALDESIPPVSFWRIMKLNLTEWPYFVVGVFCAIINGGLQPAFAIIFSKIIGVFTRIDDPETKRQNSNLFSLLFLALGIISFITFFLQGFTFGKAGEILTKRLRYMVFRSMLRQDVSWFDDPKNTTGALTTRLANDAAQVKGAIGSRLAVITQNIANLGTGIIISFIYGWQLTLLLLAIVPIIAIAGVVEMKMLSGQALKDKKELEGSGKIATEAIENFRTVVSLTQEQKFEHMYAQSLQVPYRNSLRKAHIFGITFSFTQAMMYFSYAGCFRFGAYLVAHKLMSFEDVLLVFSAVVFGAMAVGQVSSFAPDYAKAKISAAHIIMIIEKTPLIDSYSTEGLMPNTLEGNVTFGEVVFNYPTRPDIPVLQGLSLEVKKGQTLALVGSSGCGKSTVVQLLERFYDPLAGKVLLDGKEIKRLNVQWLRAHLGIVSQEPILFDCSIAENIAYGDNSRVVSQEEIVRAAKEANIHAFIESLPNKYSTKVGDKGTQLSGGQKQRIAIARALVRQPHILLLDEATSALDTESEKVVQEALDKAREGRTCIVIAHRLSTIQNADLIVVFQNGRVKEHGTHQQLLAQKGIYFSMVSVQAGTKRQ

## COc1cc2nc(N3CCCN(C(=O)N4CCOCC4)CC3)cc(N)c2c(-c2ccc(F)cc2)c1OC
  Activity: substrate [+]
